The species entered for one assay is Mus musculus. The experiment in a line: Inhibition of [3H]-thymidine incorporation into murine mixed lymphocyte culture at 100 uM (Significant anti-proliferative activity). The format is functional.
Assay [1] has as its target Tyrosine-protein kinase Lck (Homo sapiens, UniProt P06239). The experiment in a line: Dissociation constant for p56 Lck tyrosine kinase SH2 domain by fluorescence titration.

The source made the active and inactive calls. No cut-off for these calls is given here.

Chain of Tyrosine-protein kinase Lck (P06239 whole entry, the tested form may be a part): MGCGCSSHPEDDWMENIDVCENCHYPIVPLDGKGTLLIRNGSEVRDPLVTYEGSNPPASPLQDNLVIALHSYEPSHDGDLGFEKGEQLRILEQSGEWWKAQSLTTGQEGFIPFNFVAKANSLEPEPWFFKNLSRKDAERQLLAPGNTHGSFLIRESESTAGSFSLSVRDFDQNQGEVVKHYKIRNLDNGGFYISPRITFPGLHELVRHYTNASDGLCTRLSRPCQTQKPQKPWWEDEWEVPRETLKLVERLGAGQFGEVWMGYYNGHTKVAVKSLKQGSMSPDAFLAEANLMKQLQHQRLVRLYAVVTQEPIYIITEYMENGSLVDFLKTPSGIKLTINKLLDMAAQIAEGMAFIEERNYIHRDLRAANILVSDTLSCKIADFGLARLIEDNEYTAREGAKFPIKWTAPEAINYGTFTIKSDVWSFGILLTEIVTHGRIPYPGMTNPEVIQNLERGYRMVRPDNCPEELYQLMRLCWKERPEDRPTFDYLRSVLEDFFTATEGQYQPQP

On to `Cc1ccc(NC(=O)CN2C(=O)S/C(=C\c3ccc(-c4cc(C(=O)O)ccc4C)o3)C2=O)cc1`, for which, in the assay listed under Mus musculus, the inhibition entry was “Active”. In addition, the Kd in assay [1] is 6 µM.

Turning to `O=C(NCc1cccs1)c1cccnc1SCc1cccc(Br)c1`, the inhibition result in the assay listed under Mus musculus is “Active”.

As to `COc1ccc(-n2c(SCC(=O)Nc3ccccc3OC)nc3nnc(C)c-3c2N)cc1`, the inhibition entry in the assay filed under Mus musculus was “Active”.

Take `O=C(O)CSc1cccnc1Sc1ccc(Cl)cc1`: in the assay filed under Mus musculus, the inhibition result was “Active”.

On to `O=C(O)c1ccccc1SCc1cc(O)nc(O)n1`, for which the inhibition result in the assay filed under Mus musculus was “Active”.

Regarding `O=C(O)c1cccc(/N=C2\C(Cl)=C(O)OC2OC(=O)c2ccccc2)c1` (configuration not stated), the inhibition result in the assay filed under Mus musculus was “Active”.

On to `Cc1ccc(C(=O)O)cc1NC(=O)CCC(=O)O`, for which, in the assay filed under Mus musculus, the inhibition result was “Active”.

`O=C(O)CC1SC(N/N=C2/CCCc3ccccc32)=NC1=O` (configuration not stated): the inhibition result in the assay filed under Mus musculus is “Active”.

`COc1ccc([N+](=O)[O-])cc1CSc1nnc(N)s1`: the inhibition result in the assay listed under Mus musculus was “Active”.

Turning to `COc1ccc(OC)c(NC(=O)CCNC(=O)Cn2cnc3ccccc3c2=O)c1`, in the assay listed under Mus musculus, the inhibition entry was “Active”.

As for `Cc1ccc(NC(=O)c2cccc(NC(=O)c3ccccc3C(=O)O)c2)cc1C`, in the assay filed under Mus musculus, the inhibition entry was “Active”.

Values taken from ChEMBL document CHEMBL1148347, “Identification of non-phosphate-containing small molecular weight inhibitors of the tyrosine kinase p56 Lck SH2 domain via in silico screening against the pY + 3 binding site” (J Med Chem, 2004).
